Data published in ChEMBL document CHEMBL1142340 (Bioorg Med Chem Lett, 2008).
Activity calls are given as the source filed them. No cut-off for these calls is given here.

What was measured:
[1] = Dissociation constant, pKa of the compound; assay type: physicochemical
[2] = target: Histone deacetylase; assay: Inhibition of human HDAC in HeLa nuclear extracts
[3] = test system: A549; assay: Antiproliferative activity against human A549 cells after 3 days; assay type: functional, cell-based; conditions: A549, 72 h
[4] = test system: A549; assay: Antiproliferative activity against human A549 cells at 1 mM after 3 days; assay type: functional; conditions: A549, 72 h
[5] = target: Histone deacetylase (Homo sapiens) (UniProt Q13547+O15379+Q9UBN7+Q92769+Q9UQL6+Q8WUI4+Q9BY41+Q96DB2+P56524+Q9UKV0+Q969S8); assay: Inhibition of human HDAC in A549 cells assessed as increase in histone-H4 acetylation at 150 uM after 24 hrs by Western blot; assay type: cell-based

IC50 [2] [µM] | IC50 [3] [µM] | Activity [5] | Structure (SMILES) | pKa [1] | inhibition at 1000 µM [4] [%]
9.6 | 154 |  | CCCC(CCC)C(=O)OCCSS(C)(=O)=O |  | 
 | > 1000 | Active | CCCC(CCC)C(=O)O [VALPROIC ACID] |  | 24
198 | 154 |  | Br.CS(=O)(=O)SCCN |  | 
56.4 | 89 |  | CCCC(CCC)C(=O)Oc1ccc(-c2cc(=S)ss2)cc1 |  | 
102 | 161 |  | CS(=O)(=O)SCCO |  | 
17.5 |  |  | CCCC(CCC)C(=O)NCCSS(C)(=O)=O |  | 

Structure (SMILES) | IC50 [2] [µM] | IC50 [3] [µM] | Activity [5] | pKa [1] | inhibition at 1000 µM [4] [%]
Oc1ccc(-c2cc(=S)ss2)cc1 | 0.45 | 66 |  | 7.86 | 
